Test results taken from patent US20130245038A1, “Method For Selecting Or Identifying A Subject For V1B Antagonist Therapy” (ABBVIE DEUTSCHLAND GMBH & CO. KG, priority 2012, published 2013).

Columns and labels:
Format in all cases: in vivo, human
subjects with MDD [1] = test: Randomized, placebo-controlled, double-blind clinical study in subjects with MDD: MASQ and HAM-D symptom scores
From the text: High AVP was defined as ≧8.6 pg/mL, in a sample drawn at approximately 8 am or 2 pm on the day prior to initiation of study drug administration. Least squares means and standard errors are shown from analyses of covariance that included Day −1 (baseline) score as a covariate and factors for investigator, treatment, AVP class and treatment * AVP class interaction.
(§1) A randomized, placebo-controlled, double-blind clinical study of the safety and pharmacodynamics of Compound A in subjects with MDD was conducted. Fifty-one subjects with a M.I.N.I.-confirmed primary diagnosis of MDD and a clinical global impression of severity of 3 or 4 were randomized to 800 mg Compound A QD (n=31) or matching placebo (n=20) for 7 days. Subjects were confined at clinical sites from two days prior to initial study drug administration until 24 hours after the last dose of study drug. HPA axis function was thoroughly assessed prior to study drug administration and on the 6th and 7th dosing days. A panel of genetic variants related to HPA axis function was assayed. One stated aim of this study was to define a means to identify MDD subjects more likely to respond to Compound A, prior to Compound A administration.
AVP was the only parameter initially analyzed as a potential predictor of Compound A response as the daytime plasma level prior to study drug administration, measured at any of three times of day (approximately 8 am, 2 pm, and 10 pm), was the most prominent difference of baseline HPA axis function between MDD subjects in this study and HNV subjects of other studies.
Receiver operator characteristic (ROC) analysis was used. In a first ROC, the dependent variable was treatment and the independent variables were the MASQ subscales. This ROC aimed to define MASQ scale score changes that were characteristic of subjects who received Compound A and not characteristic of those who received placebo. Such score changes can be thought to distinguish Compound A responders from Compound A non-responders. Of the five MASQ subscales, General Distress Mixed (GDM) and Depressive (GDD) subscales differentiated Compound A from placebo subjects. […] Similar results were obtained when the dependent variables were analyzed as percent, rather than absolute, change from baseline.
The interaction of AVP (high v normal) and treatment (Compound A v placebo) is shown below. The dependent variables were the MASQ scale scores and the Hamilton Depression Rating Scale (HAM-D)—version score on Day 7. The corresponding scale score on Day −2 was a covariate in each model. Each model included factors for investigator, AVP, treatment and the interaction of AVP and treatment. […] MASQ total scores were normalized to a 1 to 5 scale.

[2] = test system: physiological response to a stressor (CRH challenge); test: Cortisol reactivity to a CRH challenge in MDD subjects of the clinical study; details: maximum post-CRH serum cortisol divided by pre-CRH serum cortisol, Day 7
From the text: as §1, with “High AVP was defined as ≧8.6 pg/mL, in a sample drawn at approximately 8 am or 2 pm on the day prior to initiation of study drug administration. The analysis of covariance model for Day 7 cortisol reactivity included Day −1 (baseline) cortisol reactivity as a covariate and factors for investigator, treatment, AVP class and treatment * AVP class interaction. A randomized,” for “A randomized,”, “A administration. […]” for “A administration.”

HPA axis activity [3] = test: HPA axis function measures (plasma ACTH, serum, saliva and urine cortisol, urine glucocorticoids) in MDD subjects of the clinical study; details: for Reduction of urine glucocorticoids compared to placebo: Day 6 to 7
Method: Higher urine glucocortioids was defined as ≧3.44 mg per mg creatinine, in a 24-hour collection on the day prior to initiation of study drug administration. The analysis of covariance model for Day 6 to 7 urine glucocorticoids included Day −2 to −1 (baseline) urine glucocorticoids as a covariate and factors for investigator, treatment and treatment * baseline urine glucocorticoids interaction.
as §1
In a ROC analysis, the dependent variable was responder status based on a cutoff on GDM of −0.53. The independent variable was baseline amount of urine glucocorticoids (the sum of cortisol, cortisone, alpha-tetrahydrocortisol, beta-tetrahydrocortisol and tetrahydrocortisone) collected during a 24-hour interval, divided by the amount of creatinine in the same urine collection. The optimal cutoff was 3.44 mg glucocorticoids per mg creatinine. This provided a sensitivity of 58% (14/24 Compound A responders included) and specificity of 67% (4 of 6 Compound A non-responders excluded). One Compound A subject was not included in this analysis due to missing urine glucocorticoid data.

HPA axis activity [4] = test: Urine glucocorticoids in healthy adults who received Compound A or placebo
From the text: Higher urine glucocorticoids subjects are those in whom Compound A effects larger decreases of tonic HPA axis activity, and thus an appropriate population for treatment of MDD using a V1B antagonist.

subjects with MDD [5] = test: Randomized, placebo-controlled, double-blind clinical study in subjects with MDD: MASQ and HAM-D symptom scores; remark: listed apart in the source
[6] = Compound A 800 mg QD for 7 days v placebo, MDD subjects
[7] = ROC, dependent variable treatment (Compound A 800 mg QD, n=31, v placebo, n=20), MASQ GDM score change, cutoff X −0.53
[8] = high AVP ≧8.6 pg/mL, Compound A 800 mg QD v placebo
[9] = ROC, dependent variable treatment (Compound A 800 mg QD, n=31, v placebo, n=20), MASQ GDD score change, cutoff X −0.58

Structure (SMILES): CCOc1ncccc1[C@]1(NC(=O)N2CCN(C3CCN(C)CC3)CC2)C(=O)N(S(=O)(=O)c2ccc(OC)cc2OC)c2ccc(C#N)cc21 [Compound A]
- ANCOVA factor for treatment on MASQ GDM and GDD subscales (subjects with MDD [1]; [6]): statistically significant factors for treatment
- False Negative (subjects with MDD [1]; [7]): 7
- True Positive (subjects with MDD [1]; [7]): 24
- Interaction of AVP (high v normal) and treatment, MASQ GDD score on Day 7 (subjects with MDD [1]; [8]): statistically significant
- Interaction of AVP (high v normal) and treatment, MASQ GDM, AD and 7-item HAM-D scores on Day 7 (subjects with MDD [1]; [8]): numerically favorable trends
- Physiological response to a stressor (CRH challenge) compared to placebo ([2]; high AVP MDD subjects): lower physiological response to a stressor
- Physiological response to a stressor (CRH challenge) compared to placebo ([2]; normal AVP MDD subjects): limited or no difference of stress response
- Neuroendocrine effects on plasma ACTH, serum cortisol, urine cortisol and total glucocorticoids, high AVP v normal AVP subjects (HPA axis activity [3]; MDD subjects, comparison of the two AVP groups): did not differ
- Reduction of urine glucocorticoids compared to placebo (HPA axis activity [3]; higher urine glucocorticoids MDD subjects (≧3.44 mg per mg creatinine at baseline)): larger reductions of urine glucocorticoids
- Reduction of urine glucocorticoids compared to placebo (HPA axis activity [3]; lower urine glucocorticoids MDD subjects): limited or no difference of reduction of urine glucocorticoids
- Relationship of baseline urine glucocorticoids and reduction of urine glucocorticoids compared to placebo (HPA axis activity [4]): The same relationship has been observed
- ANCOVA factor for treatment on MASQ AD, AA and GDA subscales (subjects with MDD [5]; [6]): not
- False Negative (subjects with MDD [5]; [9]): 3
- True Positive (subjects with MDD [5]; [9]): 28
- Interaction of urine glucocorticoids divided by creatinine (higher v lower) and treatment, MASQ GDM, GDD, GDA, AA and 17- and 7-item HAM-D (subjects with MDD [5]; higher ≧3.44 mg per mg creatinine, 24-hour collection): numerically favorable trends
- Interaction of urine glucocorticoids divided by creatinine (higher v lower) and treatment, MASQ and HAM-D scores on Day 7 (subjects with MDD [5]; higher ≧3.44 mg per mg creatinine, 24-hour collection, all dependent variables): not statistically significant
- Symptom changes on MASQ and HAM-D (subjects with MDD [5]; subset of subjects distinguished by AVP, copeptin and rs7088418/rs17169521 genotypes): more favorable symptom changes
- Symptom changes on MASQ and HAM-D (subjects with MDD [5]; subset of subjects distinguished by NR3C1 genotypes (rs10482672; similar for rs17100236)): unfavorable symptom changes
